Test results reported in patent US20180289692A1, “TLR MODULATORS AND METHODS OF USE” (CELGENE CORPORATION, priority 2015, published 2018).
Oligonucleotides are written 5' to 3', each unit as a sugar letter and its base; * is a phosphorothioate linkage, no mark a phosphodiester; rarer units and linkages stand in square brackets, end groups in braces. Plain capitals give the bases only. d = 2'-deoxy (DNA)

Tests used:
human PBMCs = assay: IL-1β secretion from NOD2 ligand L18-MDP stimulated human PBMCs; format: cell-based; conditions: L-18 MDP 100 ng/ml, FIG. 19
Description: PBMCs were isolated from 3 donors of buffy coat (Blood Center of NY) using density gradient centrifugation. The PBMCs were resuspended in RPMI-1640 media supplemented with 10% FBS, 2 mM L-glutamine and 100 units/ml Penicillin and 100 μg/ml Streptomycin. The cells were plated in 96-well flat bottom plates at 250,000 cells/well. […] After 1 hr, the cells were stimulated with and without L-18 MDP at 100 ng/ml (Invivogen, San Diego, Calif.) or 1 ng/ml LPS (Sigma, St. Louis, Mo.). The cells were then incubated for 24 hrs at 37° C., 5% CO2. All compounds or ODNs were resuspended in endotoxin-free water. After 24 hrs, the supernatant was collected and analyzed for cytokine production. The supernatants were analyzed in duplicate for cytokine production in a magnetic multi-plex bead format using the MagPix instrument (Millipore, Billerica, Mass.). IL-1β was tested using a bead-based human cytokine/chemokine kit (Millipore, Cat# HCYTOMAG-60K-09). The manufacturer's procedures were followed accordingly. Data analysis was performed using Milliplex Analyst Software (Millipore).

NOD2 = molecular target: T1, NOD2 (Homo sapiens, UniProt Q9HC29); conditions: HEK-Blue NOD2 cells; cited from earlier work
T1 construct: host or cells: HEK-Blue NOD2 cells
T1 sequence (Q9HC29 whole entry, species assumed): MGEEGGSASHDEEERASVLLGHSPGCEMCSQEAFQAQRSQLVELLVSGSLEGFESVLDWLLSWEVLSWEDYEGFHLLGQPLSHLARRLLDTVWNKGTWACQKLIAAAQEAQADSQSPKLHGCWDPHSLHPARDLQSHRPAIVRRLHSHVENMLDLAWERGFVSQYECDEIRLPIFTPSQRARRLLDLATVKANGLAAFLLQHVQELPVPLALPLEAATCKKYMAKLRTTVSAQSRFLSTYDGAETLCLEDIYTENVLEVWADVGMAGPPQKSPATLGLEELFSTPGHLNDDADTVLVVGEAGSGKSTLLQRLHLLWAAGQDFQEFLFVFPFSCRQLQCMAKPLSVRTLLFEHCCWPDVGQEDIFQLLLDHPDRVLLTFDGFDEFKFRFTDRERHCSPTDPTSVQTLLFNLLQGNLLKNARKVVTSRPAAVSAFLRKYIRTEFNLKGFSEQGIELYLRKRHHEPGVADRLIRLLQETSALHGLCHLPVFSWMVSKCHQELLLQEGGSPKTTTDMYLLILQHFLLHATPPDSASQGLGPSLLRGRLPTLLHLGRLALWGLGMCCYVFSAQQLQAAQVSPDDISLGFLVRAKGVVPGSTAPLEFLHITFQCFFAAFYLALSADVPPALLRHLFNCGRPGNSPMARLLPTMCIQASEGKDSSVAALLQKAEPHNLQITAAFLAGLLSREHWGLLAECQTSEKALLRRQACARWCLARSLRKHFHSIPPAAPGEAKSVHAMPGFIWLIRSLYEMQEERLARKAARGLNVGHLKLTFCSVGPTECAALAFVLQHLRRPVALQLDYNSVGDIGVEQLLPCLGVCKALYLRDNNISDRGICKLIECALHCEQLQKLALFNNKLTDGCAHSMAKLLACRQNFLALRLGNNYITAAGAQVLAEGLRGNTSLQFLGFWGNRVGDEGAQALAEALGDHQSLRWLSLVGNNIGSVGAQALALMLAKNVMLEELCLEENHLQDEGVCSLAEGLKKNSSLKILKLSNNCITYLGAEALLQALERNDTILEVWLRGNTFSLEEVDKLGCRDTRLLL

[1] = test system: CD19+ B-cells in human PBMCs; assay: B-cell activation in human PBMCs, CD86 expression on CD19+ B-cells by FACS; format: cell-based; conditions: 24 h, FIG. 7
Description: PBMC were incubated on ice in the presence of Fc-Block (BD Pharmingen) for 20 minutes, washed, and incubated with antibodies specific for surface molecules or isotype-matched control mAbs. APC-Cy7 labeled anti-human CD19 mAb and PE-labeled anti-human CD86 mAb were purchased from BioLegend. The stained cells were then subjected to FACS (FACSCanto, BD Biosciences) using the FACSDiva software. FACS analysis was performed using FlowJo software. Single, viable cells in the CD19+ B-cells gates were used for analysis. The flow cytometric results are expressed as the percentage of CD86-expressing cells (FIG. 7A) as the mean fluorescence intensity (MFI) of CD86-expressing cells in each gate (FIG. 7B).

## CCCCCCCCCCCCCCCCCC(=O)OCC1OC(O)C(NC(C)=O)C(OC(C)C(=O)NC(C)C(=O)NC(CCC(=O)O)C(N)=O)C1O [L-18 MDP]
Human PBMCs
  stimulation of IL-1β secretion from human PBMCs: about 51 fold
NOD2
  more efficient NF-κB activator than MDP: 10 fold

## ODN2137: 5′-TGCTGCTTTTGTGCTTTTGTGCTT-3′, fully PS, GC-containing (DNA dT*dG*dC*dT*dG*dC*dT*dT*dT*dT*dG*dT*dG*dC*dT*dT*dT*dT*dG*dT*dG*dC*dT*dT)
[1]
  B-cell activation (CD86 upregulation): Stronger
